Key:
Assay in all cases: radiometric filter-binding kinase assay, Kinase HotSpot
Conditions in all cases: compound 0.5 µM; ATP 10 µM
MATK (human) = MATK (human) (UniProt P42679)
MAP3K14 (human) = MAP3K14 (human) (UniProt Q99558)
PLK1 (human) = PLK1 (human) (UniProt P53350)
SRPK3 (human) = SRPK3 (human) (UniProt Q9UPE1)
FGFR2 (human) = FGFR2 (human) (UniProt P21802)
CDK4 CCND3 (human) = CDK4 CCND3 (human) (UniProt P30281+P11802)
CAMK1 (human) = CAMK1 (human) (UniProt Q14012)
TYRO3 (human) = TYRO3 (human) (UniProt Q06418)
CAMK1D (human) = CAMK1D (human) (UniProt Q8IU85)
PKN1 (human) = PKN1 (human) (UniProt Q16512)
PLK3 (human) = PLK3 (human) (UniProt Q9H4B4)
PAK3 (human) = PAK3 (human) (UniProt O75914)
TGFBR2 (human) = TGFBR2 (human) (UniProt P37173)
RPS6KA5 KD2 (human) = RPS6KA5 KD2 (human) (UniProt O75582)
CDK1 CCNA2 (human) = CDK1 CCNA2 (human) (UniProt P06493+P20248)
SIK2 (human) = SIK2 (human) (UniProt Q9H0K1)
CDK9 CCNT1 (human) = CDK9 CCNT1 (human) (UniProt P50750+O60563)
SYK (human) = SYK (human) (UniProt P43405)
EPHA5 (human) = EPHA5 (human) (UniProt P54756)
INSR (human) = INSR (human) (UniProt P06213)
PRKCI (human) = PRKCI (human) (UniProt P41743)
[1] = tested on: PRKCQ (human), Q04759 [P330L]
TAOK1 (human) = TAOK1 (human) (UniProt Q7L7X3)
CSNK1G3 (human) = CSNK1G3 (human) (UniProt Q9Y6M4)
ADRBK1 (human) = ADRBK1 (human) (UniProt P25098)
HIPK3 (human) = HIPK3 (human) (UniProt Q9H422)
IGF1R (human) = IGF1R (human) (UniProt P08069)
SLK (human) = SLK (human) (UniProt Q9H2G2)
HCK (human) = HCK (human) (UniProt P08631)
STK17A (human) = STK17A (human) (UniProt Q9UEE5)
BRSK2 (human) = BRSK2 (human) (UniProt Q8IWQ3)
TBK1 (human) = TBK1 (human) (UniProt Q9UHD2)
GRK5 (human) = GRK5 (human) (UniProt P34947)
BTK (human) = BTK (human) (UniProt Q06187)
PRKX (human) = PRKX (human) (UniProt P51817)
CDK1 CCNB1 (human) = CDK1 CCNB1 (human) (UniProt P06493+P14635)
STK33 (human) = STK33 (human) (UniProt Q9BYT3)
CDC42BPA (human) = CDC42BPA (human) (UniProt Q5VT25)
NTRK2 (human) = NTRK2 (human) (UniProt Q16620)
CSNK1G2 (human) = CSNK1G2 (human) (UniProt P78368)
CDK6 CCND3 (human) = CDK6 CCND3 (human) (UniProt P30281+Q00534)

PLK1 (human), sequence (P53350 whole entry, looked up): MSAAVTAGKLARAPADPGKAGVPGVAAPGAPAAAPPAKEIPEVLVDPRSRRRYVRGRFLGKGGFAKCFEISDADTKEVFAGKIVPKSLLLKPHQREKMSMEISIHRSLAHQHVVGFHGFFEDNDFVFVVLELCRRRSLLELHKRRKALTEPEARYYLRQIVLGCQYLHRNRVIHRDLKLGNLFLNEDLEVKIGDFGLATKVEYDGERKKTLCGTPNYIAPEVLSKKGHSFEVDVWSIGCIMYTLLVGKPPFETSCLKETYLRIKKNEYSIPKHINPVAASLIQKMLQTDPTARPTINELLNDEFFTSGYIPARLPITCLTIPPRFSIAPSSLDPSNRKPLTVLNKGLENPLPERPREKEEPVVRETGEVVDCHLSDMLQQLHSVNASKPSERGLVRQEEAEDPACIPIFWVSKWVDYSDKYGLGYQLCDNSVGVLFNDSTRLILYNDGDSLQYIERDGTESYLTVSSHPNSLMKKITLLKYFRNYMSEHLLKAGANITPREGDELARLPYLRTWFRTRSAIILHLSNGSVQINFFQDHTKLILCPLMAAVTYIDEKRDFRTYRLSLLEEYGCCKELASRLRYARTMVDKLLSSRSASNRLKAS
PRKCQ (human), Q04759 [P330L], sequence (Q04759 whole entry P330L, looked up): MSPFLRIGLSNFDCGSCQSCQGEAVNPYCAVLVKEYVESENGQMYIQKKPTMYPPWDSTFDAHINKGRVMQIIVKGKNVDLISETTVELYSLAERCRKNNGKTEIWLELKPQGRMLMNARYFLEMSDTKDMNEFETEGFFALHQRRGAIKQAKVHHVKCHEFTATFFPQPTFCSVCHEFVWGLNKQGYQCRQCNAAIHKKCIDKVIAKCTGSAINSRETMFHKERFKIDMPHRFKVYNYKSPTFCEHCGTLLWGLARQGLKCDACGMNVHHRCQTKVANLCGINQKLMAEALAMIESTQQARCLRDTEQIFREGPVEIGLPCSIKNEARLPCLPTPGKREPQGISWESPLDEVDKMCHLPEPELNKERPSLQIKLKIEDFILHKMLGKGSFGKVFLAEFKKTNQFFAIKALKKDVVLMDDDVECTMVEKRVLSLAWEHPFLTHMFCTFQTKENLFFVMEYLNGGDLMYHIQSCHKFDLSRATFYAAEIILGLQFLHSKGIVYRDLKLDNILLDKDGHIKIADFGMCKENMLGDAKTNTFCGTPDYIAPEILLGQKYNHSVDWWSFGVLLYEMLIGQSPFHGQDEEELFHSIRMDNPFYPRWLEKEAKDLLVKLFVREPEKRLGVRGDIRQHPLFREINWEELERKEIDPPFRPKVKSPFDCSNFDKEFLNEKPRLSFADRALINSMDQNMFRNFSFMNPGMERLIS
EPHA5 (human), sequence (P54756 whole entry, looked up): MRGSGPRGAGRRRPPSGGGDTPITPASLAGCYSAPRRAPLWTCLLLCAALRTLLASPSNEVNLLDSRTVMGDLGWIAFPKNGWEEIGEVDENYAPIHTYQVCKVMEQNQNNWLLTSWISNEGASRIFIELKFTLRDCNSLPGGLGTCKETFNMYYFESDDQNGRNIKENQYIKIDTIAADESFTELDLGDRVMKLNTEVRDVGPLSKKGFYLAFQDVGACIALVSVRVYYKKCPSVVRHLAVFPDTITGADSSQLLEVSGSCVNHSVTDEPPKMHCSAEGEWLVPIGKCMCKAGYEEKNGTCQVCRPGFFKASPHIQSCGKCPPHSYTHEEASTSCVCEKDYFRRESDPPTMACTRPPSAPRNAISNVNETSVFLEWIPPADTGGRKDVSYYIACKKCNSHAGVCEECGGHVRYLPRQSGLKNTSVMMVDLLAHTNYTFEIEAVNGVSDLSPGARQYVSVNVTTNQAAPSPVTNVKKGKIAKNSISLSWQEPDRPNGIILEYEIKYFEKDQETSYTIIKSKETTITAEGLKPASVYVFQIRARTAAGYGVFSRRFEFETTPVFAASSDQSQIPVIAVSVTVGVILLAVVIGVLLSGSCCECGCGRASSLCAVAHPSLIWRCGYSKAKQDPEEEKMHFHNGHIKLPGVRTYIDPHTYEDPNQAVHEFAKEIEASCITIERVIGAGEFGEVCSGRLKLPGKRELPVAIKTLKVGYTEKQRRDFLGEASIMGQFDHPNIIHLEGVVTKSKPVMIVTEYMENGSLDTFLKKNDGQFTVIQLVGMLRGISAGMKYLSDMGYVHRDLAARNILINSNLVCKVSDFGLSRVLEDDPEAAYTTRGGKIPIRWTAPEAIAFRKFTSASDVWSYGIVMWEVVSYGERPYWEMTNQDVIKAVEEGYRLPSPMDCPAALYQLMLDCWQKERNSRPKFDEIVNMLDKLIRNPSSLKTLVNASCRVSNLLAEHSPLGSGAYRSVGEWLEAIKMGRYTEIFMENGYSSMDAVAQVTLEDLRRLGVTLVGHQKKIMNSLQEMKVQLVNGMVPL
CDK1 CCNA2 (human), sequence (P06493 whole entry, looked up): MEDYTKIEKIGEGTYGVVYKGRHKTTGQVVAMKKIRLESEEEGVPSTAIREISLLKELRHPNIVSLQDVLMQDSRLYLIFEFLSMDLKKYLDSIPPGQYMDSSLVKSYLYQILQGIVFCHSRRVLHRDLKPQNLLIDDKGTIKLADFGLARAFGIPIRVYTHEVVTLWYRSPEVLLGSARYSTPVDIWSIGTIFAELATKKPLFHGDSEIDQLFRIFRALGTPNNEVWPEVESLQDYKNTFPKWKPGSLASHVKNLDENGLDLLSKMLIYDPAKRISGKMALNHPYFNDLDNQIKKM
CDK1 CCNA2 (human), sequence (P20248 whole entry, looked up): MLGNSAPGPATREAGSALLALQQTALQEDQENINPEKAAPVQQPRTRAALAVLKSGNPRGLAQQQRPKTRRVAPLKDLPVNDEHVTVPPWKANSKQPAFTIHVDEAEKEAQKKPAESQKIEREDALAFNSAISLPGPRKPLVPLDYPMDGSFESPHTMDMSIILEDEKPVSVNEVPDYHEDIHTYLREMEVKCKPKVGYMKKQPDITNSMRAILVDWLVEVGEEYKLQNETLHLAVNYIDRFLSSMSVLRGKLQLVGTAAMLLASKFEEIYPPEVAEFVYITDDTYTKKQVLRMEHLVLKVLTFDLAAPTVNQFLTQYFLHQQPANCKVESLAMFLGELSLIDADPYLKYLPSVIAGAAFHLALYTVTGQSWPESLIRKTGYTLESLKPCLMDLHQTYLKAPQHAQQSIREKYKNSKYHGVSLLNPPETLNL
CDK1 CCNB1 (human), sequence (P06493 whole entry, looked up): as the sequence (P06493 whole entry, looked up) above
CDK1 CCNB1 (human), sequence (P14635 whole entry, looked up): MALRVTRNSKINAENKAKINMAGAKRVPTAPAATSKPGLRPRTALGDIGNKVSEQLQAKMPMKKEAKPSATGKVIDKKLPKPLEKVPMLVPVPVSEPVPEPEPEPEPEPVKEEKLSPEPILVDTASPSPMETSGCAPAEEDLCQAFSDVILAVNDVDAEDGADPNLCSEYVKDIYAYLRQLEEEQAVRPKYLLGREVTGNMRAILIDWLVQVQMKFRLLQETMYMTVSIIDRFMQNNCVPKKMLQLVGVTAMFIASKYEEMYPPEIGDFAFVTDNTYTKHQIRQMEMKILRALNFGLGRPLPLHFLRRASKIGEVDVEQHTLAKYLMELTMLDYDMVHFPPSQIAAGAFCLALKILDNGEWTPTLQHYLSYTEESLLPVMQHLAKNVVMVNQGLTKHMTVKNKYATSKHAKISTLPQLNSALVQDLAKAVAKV
CAMK1D (human), sequence (Q8IU85 whole entry, looked up): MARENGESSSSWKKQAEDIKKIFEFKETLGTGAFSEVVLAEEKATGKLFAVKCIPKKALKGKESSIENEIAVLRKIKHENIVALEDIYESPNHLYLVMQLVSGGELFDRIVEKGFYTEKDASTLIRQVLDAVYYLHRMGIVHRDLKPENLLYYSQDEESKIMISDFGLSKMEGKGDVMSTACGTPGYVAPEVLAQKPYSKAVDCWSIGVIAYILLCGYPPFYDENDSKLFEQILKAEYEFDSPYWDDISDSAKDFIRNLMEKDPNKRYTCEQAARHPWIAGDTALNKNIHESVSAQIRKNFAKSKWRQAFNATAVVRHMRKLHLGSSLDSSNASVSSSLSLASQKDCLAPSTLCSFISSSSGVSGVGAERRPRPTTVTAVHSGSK
HCK (human), sequence (P08631 whole entry, looked up): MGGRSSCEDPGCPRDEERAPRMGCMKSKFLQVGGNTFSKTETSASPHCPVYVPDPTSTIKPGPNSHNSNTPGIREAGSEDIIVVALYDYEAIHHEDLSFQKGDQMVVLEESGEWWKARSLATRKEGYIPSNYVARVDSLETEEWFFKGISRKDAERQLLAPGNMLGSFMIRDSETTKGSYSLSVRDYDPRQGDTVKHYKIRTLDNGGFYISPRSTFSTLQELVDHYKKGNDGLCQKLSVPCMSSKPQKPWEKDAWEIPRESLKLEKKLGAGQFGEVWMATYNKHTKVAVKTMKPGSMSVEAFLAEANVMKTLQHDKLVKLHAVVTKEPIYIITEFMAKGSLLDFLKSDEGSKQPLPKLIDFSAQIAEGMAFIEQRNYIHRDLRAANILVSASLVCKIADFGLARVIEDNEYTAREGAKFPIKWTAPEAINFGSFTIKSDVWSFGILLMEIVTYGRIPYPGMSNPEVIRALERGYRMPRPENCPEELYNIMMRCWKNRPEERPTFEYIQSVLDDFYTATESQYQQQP

CN(C)c1ccc(/C=C2\C(=O)Nc3ccccc32)cc1
residual activity (MATK (human)): 95.3%
residual activity (MAP3K14 (human)): 67.7%
residual activity (PLK1 (human)): 103%
residual activity (SRPK3 (human)): 98.7%
residual activity (FGFR2 (human)): 98.2%
residual activity (CDK4 CCND3 (human)): 98.9%
residual activity (CAMK1 (human)): 104%
residual activity (TYRO3 (human)): 92.7%
residual activity (CAMK1D (human)): 98.8%
residual activity (PKN1 (human)): 98.4%
residual activity (PLK3 (human)): 97%
residual activity (PAK3 (human)): 99%
residual activity (TGFBR2 (human)): 124%
residual activity (RPS6KA5 KD2 (human)): 98.7%
residual activity (CDK1 CCNA2 (human)): 96.9%
residual activity (SIK2 (human)): 101%
residual activity (CDK9 CCNT1 (human)): 94.5%
residual activity (SYK (human)): 90.4%
residual activity (EPHA5 (human)): 109%
residual activity (INSR (human)): 93.4%
residual activity (PRKCI (human)): 101%
residual activity [1]: 104%
residual activity (TAOK1 (human)): 94.7%
residual activity (CSNK1G3 (human)): 101%
residual activity (ADRBK1 (human)): 101%
residual activity (HIPK3 (human)): 94.4%
residual activity (IGF1R (human)): 101%
residual activity (SLK (human)): 103%
residual activity (HCK (human)): 110%
residual activity (STK17A (human)): 93.8%
residual activity (BRSK2 (human)): 93%
residual activity (TBK1 (human)): 98.4%
residual activity (GRK5 (human)): 104%
residual activity (BTK (human)): 104%
residual activity (PRKX (human)): 104%
residual activity (CDK1 CCNB1 (human)): 94.1%
residual activity (STK33 (human)): 99.8%
residual activity (CDC42BPA (human)): 101%
residual activity (NTRK2 (human)): 54.8%
residual activity (CSNK1G2 (human)): 96.7%
residual activity (CDK6 CCND3 (human)): 96.4%

Cc1cccc(-c2nc(C(C)(C)C)[nH]c2-c2ccc3c(c2)OCO3)n1
residual activity (MATK (human)): 100%
residual activity (MAP3K14 (human)): 109%
residual activity (PLK1 (human)): 105%
residual activity (SRPK3 (human)): 95.1%
residual activity (FGFR2 (human)): 105%
residual activity (CDK4 CCND3 (human)): 102%
residual activity (CAMK1 (human)): 99.8%
residual activity (TYRO3 (human)): 102%
residual activity (CAMK1D (human)): 102%
residual activity (PKN1 (human)): 108%
residual activity (PLK3 (human)): 95.6%
residual activity (PAK3 (human)): 95.9%
residual activity (TGFBR2 (human)): 105%
residual activity (RPS6KA5 KD2 (human)): 97.5%
residual activity (CDK1 CCNA2 (human)): 96.7%
residual activity (SIK2 (human)): 91.4%
residual activity (CDK9 CCNT1 (human)): 88.5%
residual activity (SYK (human)): 87%
residual activity (EPHA5 (human)): 95.6%
residual activity (INSR (human)): 87.6%
residual activity (PRKCI (human)): 92.8%
residual activity [1]: 107%
residual activity (TAOK1 (human)): 97.6%
residual activity (CSNK1G3 (human)): 102%
residual activity (ADRBK1 (human)): 105%
residual activity (IGF1R (human)): 96.2%
residual activity (SLK (human)): 108%
residual activity (HCK (human)): 90.7%
residual activity (STK17A (human)): 84.1%
residual activity (BRSK2 (human)): 99.3%
residual activity (TBK1 (human)): 91.9%
residual activity (GRK5 (human)): 108%
residual activity (BTK (human)): 118%
residual activity (PRKX (human)): 95%
residual activity (CDK1 CCNB1 (human)): 100%
residual activity (STK33 (human)): 89%
residual activity (CDC42BPA (human)): 89.6%
residual activity (NTRK2 (human)): 96.4%
residual activity (CSNK1G2 (human)): 104%
residual activity (CDK6 CCND3 (human)): 98%

N#Cc1c[nH]c2c[nH]/c(=N\Cc3cccnc3)cc2/c1=N\c1ccc(F)c(Cl)c1
residual activity (MATK (human)): 95.9%
residual activity (MAP3K14 (human)): 118%
residual activity (PLK1 (human)): 92.6%
residual activity (SRPK3 (human)): 96.4%
residual activity (FGFR2 (human)): 103%
residual activity (CDK4 CCND3 (human)): 101%
residual activity (CAMK1 (human)): 99.1%
residual activity (TYRO3 (human)): 98%
residual activity (CAMK1D (human)): 97.8%
residual activity (PKN1 (human)): 101%
residual activity (PLK3 (human)): 91.1%
residual activity (PAK3 (human)): 99.2%
residual activity (TGFBR2 (human)): 118%
residual activity (RPS6KA5 KD2 (human)): 102%
residual activity (CDK1 CCNA2 (human)): 88%
residual activity (SIK2 (human)): 97.6%
residual activity (CDK9 CCNT1 (human)): 91.2%
residual activity (SYK (human)): 94.4%
residual activity (EPHA5 (human)): 90.6%
residual activity (INSR (human)): 85.1%
residual activity (PRKCI (human)): 94.7%
residual activity [1]: 113%
residual activity (TAOK1 (human)): 89.9%
residual activity (CSNK1G3 (human)): 103%
residual activity (ADRBK1 (human)): 95.7%
residual activity (HIPK3 (human)): 96.5%
residual activity (IGF1R (human)): 93.8%
residual activity (SLK (human)): 86.6%
residual activity (HCK (human)): 92.5%
residual activity (STK17A (human)): 79.6%
residual activity (BRSK2 (human)): 100%
residual activity (TBK1 (human)): 83.4%
residual activity (BTK (human)): 98.3%
residual activity (PRKX (human)): 101%
residual activity (CDK1 CCNB1 (human)): 84.6%
residual activity (STK33 (human)): 87.4%
residual activity (CDC42BPA (human)): 80%
residual activity (NTRK2 (human)): 101%
residual activity (CSNK1G2 (human)): 102%
residual activity (CDK6 CCND3 (human)): 88.8%
